Values joined by “and” are separate entries in the source; they are usually repeats but may differ in a detail not shown here. Identical values can stand only once. Inconclusive results and toxic doses are left out. Rule for the calls: active = survival T/C of 150% or more; inactive = T/C below 125% in these data.
Test system: P388 leukemia ip, CD2F1 mice, survival T/C
Experiment: NCI In Vivo Anticancer Drug Screen. Data for tumor model P388 Leukemia (intraperitoneal) in CD2F1 (CDF1) mice
Settings: endpoint: median survival time, higher = longer survival
Method in brief: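 Mice carrying the transplanted tumor received test compound or vehicle. Survival was recorded in each group, and the value is the treated-group measurement divided by that of the vehicle-treated control group.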

[1] = dose: 50.0 mg/kg/injection, schedule: Q01DX005 (ip), vehicle: saline with Tween-80
[2] = dose: 100.0 mg/kg/injection, schedule: Q01DX005 (ip), vehicle: saline with Tween-80
[3] = dose: 200.0 mg/kg/injection, schedule: Q01DX005 (ip), vehicle: saline with Tween-80
[4] = dose: 50.0 mg/kg/injection, schedule: Q01DX009 (ip), vehicle: Klucel (hydroxypropylcellulose) (HPC)
[5] = dose: 100.0 mg/kg/injection, schedule: Q01DX009 (ip), vehicle: Klucel (hydroxypropylcellulose) (HPC)
[6] = dose: 200.0 mg/kg/injection, schedule: Q01DX009 (ip), vehicle: Klucel (hydroxypropylcellulose) (HPC)
[7] = dose: 100.0 mg/kg/injection, schedule: Q04DX003 (ip), vehicle: saline with Tween-80
[8] = dose: 60.0 mg/kg/injection, schedule: Q01DX005 (ip), vehicle: saline with Tween-80
[9] = dose: 120.0 mg/kg/injection, schedule: Q01DX005 (ip), vehicle: saline with Tween-80
[10] = dose: 240.0 mg/kg/injection, schedule: Q01DX005 (ip), vehicle: saline with Tween-80
[11] = dose: 50.0 mg/kg/injection, schedule: Q01DX009 (ip), vehicle: saline with Tween-80
[12] = dose: 100.0 mg/kg/injection, schedule: Q01DX009 (ip), vehicle: saline with Tween-80
[13] = dose: 200.0 mg/kg/injection, schedule: Q01DX009 (ip), vehicle: saline with Tween-80
[14] = dose: 50.0 mg/kg/injection, schedule: Q01DX005 (ip), vehicle: Klucel (hydroxypropylcellulose) (HPC)
[15] = dose: 100.0 mg/kg/injection, schedule: Q01DX005 (ip), vehicle: Klucel (hydroxypropylcellulose) (HPC)
[16] = dose: 200.0 mg/kg/injection, schedule: Q01DX005 (ip), vehicle: Klucel (hydroxypropylcellulose) (HPC)

Measured: T/C

O=C1OC[C@H]2[C@H](c3ccc(O)c(O)c3)c3cc(O)c(O)cc3C[C@H]12
inactive: [1] 95 % of control | [2] 95 % of control | [3] 92 % of control

CCOC(=O)C(Cc1ccc([N+](=O)[O-])cc1)N1C(=O)c2ccccc2C1=O (centres undefined)
inactive: dose: 50.0 mg/kg/injection, schedule: Q01DX009 (ip), vehicle: distilled water + Tween-80 + alcohol 98 % of control | dose: 100.0 mg/kg/injection, schedule: Q01DX009 (ip), vehicle: distilled water + Tween-80 + alcohol 89 % of control | dose: 200.0 mg/kg/injection, schedule: Q01DX009 (ip), vehicle: distilled water + Tween-80 + alcohol 92 % of control

Cc1nn(C(=O)c2ccncc2)c(C)c1N=Nc1ccc(Br)cc1
inactive: [4] 109 % of control | [5] 110 % of control | [6] 105 % of control

Cc1ccc(S(=O)CF)cc1 (centres undefined)
inactive: [7] 107 % of control

CC1(C)OC(C(F)(F)F)(C(F)(F)F)c2cc(C(C)(C)C)ccc2S1
inactive: [8] 98 % of control | [9] 98 % of control | [10] 102 % of control

O=C(COc1ccc(Cl)cc1Cl)Nc1ccccc1C(=O)c1ccccc1
inactive: [11] 101 % of control | [12] 101 % of control | [13] 94 % of control

COC(=O)OCC#Cc1ccccc1
inactive: dose: 50.0 mg/kg/injection, schedule: Q04DX002 (ip), vehicle: saline with Tween-80 100 % of control | dose: 100.0 mg/kg/injection, schedule: Q04DX002 (ip), vehicle: saline with Tween-80 108 % of control | dose: 200.0 mg/kg/injection, schedule: Q04DX002 (ip), vehicle: saline with Tween-80 112 % of control

NC(=S)N/N=C/c1nc2ccccn2c1[N+](=O)[O-]
inactive: [5] 86 % of control

O=C(CCl)c1ccc2ccc3c(c2c1)Nc1ccccc1S3
inactive: [4] 96 % of control | [5] 99 % of control | [6] 93 % of control

COC1(C)C(=O)N(C)C1c1ccccc1 (centres undefined)
inactive: [8] 100 % of control | [9] 97 % of control | [10] 100 % of control

O/N=C(Sc1ccccn1)/C(=N/O)Sc1ccccn1
inactive: [1] 101 % of control | [2] 109 % of control | [3] 113 % of control

CCOC(=O)C(C(=O)OCC)c1nc[nH]c1[N+](=O)[O-]
inactive: dose: 25.0 mg/kg/injection, schedule: Q04DX003 (ip), vehicle: saline with Tween-80 108 % of control | dose: 50.0 mg/kg/injection, schedule: Q04DX003 (ip), vehicle: saline with Tween-80 104 % of control | [7] 100 % of control and 97 % of control

CC(C)(O)c1ccccc1Sc1ccccc1C(C)(C)O
inactive: dose: 100.0 mg/kg/injection, schedule: Q01DX001 (ip), vehicle: saline with Tween-80 102 % of control | dose: 200.0 mg/kg/injection, schedule: Q01DX001 (ip), vehicle: saline with Tween-80 103 % of control | dose: 400.0 mg/kg/injection, schedule: Q01DX001 (ip), vehicle: saline with Tween-80 95 % of control

COC(=O)C1C(O)C(C)C(O)OC1C(C)C(O)C(C)/C=C\C=C(/C)C(=O)Nc1c(C)c(OC(C)=O)c2c(c1O)C(=O)C(C)=C1OCOC(/C(C)=C/C(C)=O)=C12 (centres undefined)
inactive: dose: 12.5 mg/kg/injection, schedule: Q01DX009 (ip), vehicle: Klucel (hydroxypropylcellulose) (HPC) 103 % of control | dose: 25.0 mg/kg/injection, schedule: Q01DX005 (ip), vehicle: Klucel (hydroxypropylcellulose) (HPC) 106 % of control | dose: 25.0 mg/kg/injection, schedule: Q01DX009 (ip), vehicle: Klucel (hydroxypropylcellulose) (HPC) 108 % of control | [14] 113 % of control | [4] 112 % of control | [15] 113 % of control | [5] 108 % of control | [16] 118 % of control

COc1ccc(C=NCCC[Si]23OCCN(CCO2)CCO3)c(OC)c1OC
inactive: [14] 98 % of control | [15] 94 % of control | [16] 103 % of control

CCCCCCC(=O)/C=C/c1cc(OC)c(OC)cc1OC
inactive: [11] 100 % of control | [12] 94 % of control | [13] 96 % of control

From PubChem BioAssay AID330 (DTP/NCI, 2004)
